Data taken from patent publication US8981111B2 (priority 2008, dated 2015).

Assay: log P (HPLC/MS data of the preparation examples)
Conditions: HCOOH

Compound | log P(HCOOH)
2-(6-{[({(3-bromo-4-methoxyphenyl)[3-chloro-5-(trifluoromethyl)pyridin-2-yl]methylene}amino)oxy]methyl}pyridin-2-yl)-1H-isoindole-1,3(2H)-dione [Example 430] | 4.78

Same assay, conditions: HCOOH (formic acid)

Compound | chromatographic logP
Cc1ncc(C(=O)c2ccccc2)n1C [(1,2-dimethyl-1H-imidazol-5-yl)(phenyl)methanone] | 0.56
Cn1cncc1C(=O)c1ccsc1 [(1-methyl-1H-imidazol-5-yl)(3-thienyl)methanone] | 0.43
Cn1ccnc1C(=O)c1ccccc1 [(1-methyl-1H-imidazol-2-yl)(phenyl)methanone] | 1.38

Same assay, conditions: HPLC (LC-MS) method [b]: pH 2.7, 0.1% formic acid in water and acetonitrile, linear gradient 10% to 95% acetonitrile; EEC directive 79/831 Annex V.A8

Compound | log p
CCCCCOC(=O)Nc1nc(CON=C(c2cc(C(F)(F)F)ccn2)c2ncccc2C)cs1 [Example 489] | 4.13^[b]
Cn1cncc1C(=NOCc1cccc(N2C(=O)c3ccccc3C2=O)n1)c1ccsc1 [Example 417] | 1.73^[b]
Cn1cncc1C(=NOCc1csc(N)n1)c1ccsc1 [Example 422] | 0.45^[b]
Cc1cccnc1C(=NOCc1csc(N)n1)c1cc(C(F)(F)F)ccn1 [Example 486] | 1.57^[b]
Cn1ncnc1C(=NOCc1csc(NC(=O)C(C)(C)C)n1)c1ncc(C(F)(F)F)cc1Cl [Example 481] | 3.27^[b]
CCCCCC(=O)Nc1nc(CON=C(c2cccs2)c2cncn2C)cs1 [Example 429] | 1.93^[b]
2-(6-{[({(3-bromo-4-methoxyphenyl)[3-chloro-5-(trifluoromethyl)pyridin-2-yl]methylene}amino)oxy]methyl}pyridin-2-yl)-1H-isoindole-1,3(2H)-dione [Example 430] | 1.67^[b]

Same assay, conditions: HPLC/MS with HCOOH (formic acid)

Compound | chromatographic logP
COc1ccc(C(=NO)c2ncc(C(F)(F)F)cc2Cl)cc1Br [1-(3-bromo-4-methoxyphenyl)-1-[3-chloro-5-(trifluoromethyl)pyridin-2-yl]-N-hydroxymethanimine] | 3.37

Same assay, conditions: LC-MS, method [b]: pH 2.7 with 0.1% formic acid in water and acetonitrile, linear gradient 10% to 95% acetonitrile

Compound | log p
Cn1ccnc1C(=NOCc1nccc(NC(=O)COCc2ccccc2)n1)c1ccccc1 [Example 54] | 2.04^[b]
Cn1ncnc1C(=NOCc1ncc(C(F)(F)F)cc1Cl)c1ccccc1 [Example 47] | 3.44^[b]
CCCCCOC(=O)Nc1cccc(CON=C(c2ccccc2)c2nccn2C)n1 [Example 37] | 2.6^[b]
C#CCCOC(=O)Nc1cccc(CON=C(c2cccc(F)c2)c2nccn2C)n1 [Example 336] | 1.98^[b]
CC(C)CC(=O)Nc1cccc(CON=C(c2ccccc2)c2cncn2C)n1 [Example 121] | 1.84^[b]
CCCCCOC(=O)Nc1cccc(CON=C(c2ccc(OC)c(Br)c2)c2ncc(C(F)(F)F)cc2Cl)n1 [Example 363] | 6.13^[b]
COc1ccc(C(=NOCc2cccc(N)n2)c2ncc(C(F)(F)F)cc2Cl)cc1Br [Example 358] | 2.54^[b]
Cn1nncc1C(=NOCc1nccc(NC(=O)C(C)(C)C)n1)c1ccccc1 [Example 77] | 2.77^[b]
CCCCS(=O)(=O)Nc1cccc(CON=C(c2ccccc2)c2ncnn2C)n1 [Example 72] | 4.21^[b]
Cn1c(C(=NOCc2nccc(NC(=O)C(C)(C)C)n2)c2ccccc2)cnc1C(=O)C(C)(C)C [Example 102] | 4.84^[b]
CC(C)CC(=O)Nc1nc(CON=C(c2ccccc2)c2cncn2C)cs1 [Example 118] | 1.84^[b]
Cn1ccnc1C(=NOCc1nccc(NC(=O)C(C)(C)C)n1)c1cccs1 [Example 390] | 1.56^[b]
Cn1ccnc1C(=NOCc1cccc(NC(=O)CCC2CCCC2)n1)c1cccc(F)c1 [Example 284] | 3.44^[b]
Cc1cnc(C)c(C(=NOCc2cccc(N)n2)c2ccccc2)n1 [Example 373] | 1.31^[b]
Cc1ccc(C(=NOCc2cccc(NC(=O)C3CC3)n2)c2ncnn2C)cc1 [Example 17] | 2.73^[b]
Cn1cncc1C(=NOCc1nccc(N(C(=O)C2CC2)C(=O)C2CC2)n1)c1ccccc1 [Example 104] | 1.75^[b]
Cn1ccnc1C(=NOCc1cccc(NC(=O)C2CCCCO2)n1)c1cccc(F)c1 (stereo not shown) [Example 340] | 2.17^[b]
Cn1cncc1C(=NOCc1csc(N)n1)c1ccccc1 [Example 111] | 0.69^[b]
CCCCCC(=O)Nc1cccc(CON=C(c2ccccc2)c2ocnc2C)n1 (single isomer, unassigned) [Example 323] | 3.67^[b]

Compound | log p
CCCC(C)C(=O)Nc1cccc(CON=C(c2cccc(F)c2)c2nccn2C)n1 (stereo not shown) [Example 289] | 2.77^[b]
CC(C)C(=O)Nc1nc(CON=C(c2ccccc2)c2cncn2C)cs1 [Example 119] | 1.63^[b]
CCCC(=O)Nc1ccnc(CON=C(c2ccccc2)c2nccn2C)n1 [Example 58] | 1.68^[b]
C=CCOC(=O)Nc1ccnc(CON=C(c2ccccc2)c2nccn2C)n1 [Example 57] | 1.62^[b]
CC(C)CC(=O)Nc1nc(CON=C(c2cccs2)c2ncnn2C)cs1 [Example 404] | 2.73^[b]
Cc1cccc(C(=NOCc2cccc(N)n2)c2ncnn2C)c1 [Example 8] | 1.27^[b]
C=CCCOC(=O)Nc1cccc(CON=C(c2ccccc2)c2nccn2C)n1 [Example 328] | 2.02^[b]
Cc1ncoc1C(=NOCc1csc(N)n1)c1ccccc1 [Example 351, 4-[({[(4-methyl-1,3-oxazol-5-yl)(phenyl)methylene]amino-}oxy)methyl]-1,3-thiazol-2-amine] | 1.46^[b]
Cn1ncnc1C(=NOCc1cccc(NC(=O)CCc2ccc(C(F)(F)F)cc2)n1)c1ccccc1 [Example 302] | 3.9^[b]
Cn1ncnc1C(=NOCc1nccc(N)n1)c1cccs1 [Example 397] | 0.47^[b]
COC(=O)CCCC(=O)Nc1cccc(CON=C(c2ccc(C)cc2)c2ncnn2C)n1 [Example 42] | 2.68^[b]
CCCCCOC(=O)Nc1cccc(CON=C(c2cccs2)c2nccn2C)n1 [Example 411] | 2.71^[b]
CCCCCC(=O)Nc1nc(CON=C(c2cccs2)c2ncnn2C)cs1 [Example 399] | 3.23^[b]
Cn1ncnc1C(=NOCc1ccccn1)c1ccccc1 [Example 50] | 1.51^[b]
Nc1nc(CON=C(c2ccsc2)c2snc(Cl)c2Cl)cs1 [Example 383] | 2.51^[b]
Cc1cccc(C(=NOCc2cccc(NC(=O)C(C)(C)C)n2)c2ncnn2C)c1 [Example 22] | 3.31^[b]
Cc1ncoc1C(=NOCc1csc(N)n1)c1ccccc1 (single isomer, unassigned) [Example 350] | 1.3^[b]
Cn1ccnc1C(=NOCc1cccc(NC(=O)Cc2ccccc2)n1)c1cccs1 [Example 414] | 2.05^[b]

Same assay, conditions: LC-MS, method [c]: pH 7.8 with 0.001 molar ammonium hydrogen carbonate solution in water, linear gradient 10% to 95% acetonitrile

Compound | log p
Cn1ccnc1C(=NOCc1nccc(N)n1)c1cccs1 [Example 386] | 1.13^[c]

Same assay, conditions: method [b]: LC-MS at pH 2.7, 0.1% formic acid in water / acetonitrile, linear gradient 10% to 95% acetonitrile

Compound | log p
Cc1ncc(C(=NOCc2cccc(N3C(=O)c4ccccc4C3=O)n2)c2ccccc2)n1C [Example 194] | 1.84^[b]
Cn1c(C(=NOCc2cccc(NC(=O)C3CCCC3)n2)c2ccccc2)nnc1C(F)(F)F [Example 202] | 3.69^[b]
Cn1ccnc1C(=NOCc1cccc(N2C(=O)c3ccccc3C2=O)n1)c1cccc(F)c1 [Example 227] | 2.13^[b]
Cn1nc(C(=NOCc2cccc(NC(=O)CCC3CCCC3)n2)c2ccccc2)n(C)c1=O [Example 153] | 3.71^[b]
CCCCC(=O)Nc1cccc(CON=C(c2ccccc2)c2nnc(C(F)(F)F)n2C)n1 [Example 207] | 3.58^[b]
CC(C(=O)Nc1cccc(CON=C(c2cccc(F)c2)c2nccn2C)n1)c1ccccc1 (stereo not shown) [Example 278] | 2.92^[b]
COc1ccccc1CC(=O)Nc1cccc(CON=C(c2ccccc2)c2ncnn2C)n1 [Example 234] | 3.17^[b]
Cn1ncnc1C(=NOCc1cccc(NC(=O)Cc2cccc(C(F)(F)F)c2)n1)c1ccccc1 [Example 244] | 3.64^[b]
CC(C)COC(=O)Nc1cccc(CON=C(c2ccccc2)c2nc(C(F)(F)F)nn2C)n1 [Example 180] | 4.78^[b]
Cn1ncnc1C(=NOCc1cccc(NC(=O)Cc2ccc(Cl)cc2)n1)c1ccccc1 [Example 242] | 3.46^[b]
COc1cccc(CC(=O)Nc2cccc(CON=C(c3ccccc3)c3ncnn3C)n2)c1 [Example 247] | 3.06^[b]
Cn1ccnc1C(=NOCc1cccc(NC(=O)Cc2ccccc2F)n1)c1ccccc1 [Example 269] | 2.4^[b]
Cc1nc(C(=NOCc2cccc(NC(=O)CC(C)C)n2)c2ccccc2)cs1 (single isomer, unassigned) [Example 190] | 3.75^[b]
CCCCCCCCCC(=O)Nc1cccc(CON=C(c2ccccc2)c2cncn2C)n1 [Example 254] | 3.09^[b]
Cn1cnnc1C(=NOCc1cccc(C#CCC2CCCCC2)n1)c1ccccc1 [Example 231] | 4.14^[b]
Cn1nc(C(=NOCc2cccc(NC(=O)CC(F)(F)F)n2)c2ccccc2)n(C)c1=O [Example 151] | 2.66^[b]
Cn1nc(C(=NOCc2cccc(NC(=O)CCc3ccccc3)n2)c2ccccc2)n(C)c1=O [Example 150] | 3.19^[b]
Cn1ncnc1C(=NOCc1cccc(NC(=O)Cc2ccccc2C(F)(F)F)n1)c1ccccc1 [Example 245] | 3.51^[b]
CCCc1ccc(C(=O)Nc2cccc(CON=C(c3ccccc3)c3ncnn3C)n2)cc1 [Example 261] | 4.24^[b]
CCCCCOC(=O)Nc1cccc(CON=C(c2ccccc2)c2nnc(C(F)(F)F)n2C)n1 [Example 197] | 4.49^[b]
CCCCCC(=O)Nc1cccc(CON=C(c2ccccc2)c2nc(C(F)(F)F)nn2C)n1 [Example 182] | 4.67^[b]

Same assay, conditions: reversed phase HPLC column, pH 2.7

Compound | chromatographic logP
CCCCCC(=O)Nc1cccc(CON=C(c2ccccc2)c2ncnn2C)n1 [Example 28, N-{6-[({[(1-methyl-1H-1,2,4-triazol-5-yl)(phenyl)methylene]amino}oxy)methyl]pyridin-2-yl}hexanamide] | 3.39
CCCCCC(=O)Nc1cccc(CON=C(c2ccccc2)c2ocnc2C)n1 [Example 320, N-{6-[({[(4-methyl-1,3-oxazol-5-yl)(phenyl)methylene]amino}oxy)methyl]pyridin-2-yl}hexanamide] | 3.94
